Assay results as given in PubChem BioAssay AID651642 (Sanford-Burnham Center for Chemical Genomics, 2012).

Legend:
H9c2 = experiment: protection of cardiomyocytes from stress damage, SAR follow-up, cell-based, panel, H9c2 and HL-1, H2O2, 2-deoxyglucose, ATP luminescence (AID 651642)
HL-1 = experiment: as above
[1] = H9c2/HL-1 cardiomyocyte 2-deoxyglucose damage, run 1, with 2-deoxyglucose
[2] = H9c2/HL-1 cardiomyocyte 2-deoxyglucose damage, run 2, with 2-deoxyglucose
[3] = H9c2/HL-1 cardiomyocyte 2-deoxyglucose damage, run 3, with 2-deoxyglucose
[4] = H9c2/HL-1 cardiomyocyte 2-deoxyglucose damage, run 4, with 2-deoxyglucose
[5] = H9c2/HL-1 cardiomyocyte H2O2 oxidative damage, mean of runs, with H2O2, mean IC50 across panel
[6] = H9c2/HL-1 cardiomyocyte H2O2 oxidative damage, run 1, with H2O2
[7] = H9c2/HL-1 cardiomyocyte H2O2 oxidative damage, run 2, with H2O2
[8] = H9c2/HL-1 cardiomyocyte H2O2 oxidative damage, run 3, with H2O2
[9] = H9c2/HL-1 cardiomyocyte H2O2 oxidative damage, run 4, with H2O2
[10] = H9c2/HL-1 cardiomyocyte 2-deoxyglucose damage, mean of runs, with 2-deoxyglucose, mean IC50 across panel

Compound | IC50 (H9c2; [1]) [µM] | IC50 (H9c2; [2]) [µM] | IC50 (H9c2; [3]) [µM] | IC50 (H9c2; [4]) [µM] | IC50 (H9c2; [5]) [µM] | IC50 (H9c2; [6]) [µM] | IC50 (H9c2; [7]) [µM] | IC50 (H9c2; [8]) [µM] | IC50 (H9c2; [9]) [µM] | IC50 (HL-1; [1]) [µM] | IC50 (HL-1; [2]) [µM] | IC50 (HL-1; [3]) [µM] | IC50 (HL-1; [4]) [µM] | IC50 (HL-1; [6]) [µM] | IC50 (HL-1; [7]) [µM] | IC50 (HL-1; [8]) [µM] | IC50 (HL-1; [9]) [µM] | IC50 (H9c2; [10]) [µM] | IC50 (HL-1; [5]) [µM] | IC50 (HL-1; [10]) [µM]
CCOC(=O)c1cccc(NC(=O)c2cc(-c3cc(OC)c(OC)c(OC)c3)nc3ccc(OC)cc23)c1 | > 79 | 24.6 | 35.6 | 44.4 | 2.56 | 2.7 | 2.92 | 2.05 | 2.56 | 2.77 | 2.79 | > 79 | > 79 | 4.24 | 4.51 | > 79 | 2.3 | – | – | –
COc1cc(-c2cc(C(=O)Nc3cccc(C(C)=O)c3)c3cc(C)ccc3n2)cc(OC)c1OC | > 79 | > 79 | > 79 | > 79 | 5.05 | 4.03 | 8.34 | 3.55 | 4.29 | 4.82 | 5.03 | > 79 | > 79 | 4.85 | 5.7 | 2.78 | 3.12 | > 79 | 4.11 | –
COc1cc(-c2cc(C(=O)NCC(=O)O)c3ccccc3n2)cc(OC)c1OC | > 79 | > 79 | > 79 | > 79 | – | > 79 | > 79 | > 79 | > 79 | > 79 | > 79 | > 79 | > 79 | > 79 | > 79 | > 79 | > 79 | > 79 | > 79 | > 79
COc1cc(-c2cc(C(=O)Nc3cccc(-c4nn[nH]n4)c3)c3ccccc3n2)cc(OC)c1OC | > 79 | > 79 | > 79 | > 79 | 20.9 | 24.2 | 24.3 | 16.4 | 18.6 | 27.6 | 57.3 | 48.6 | 56.7 | 26.1 | 28.8 | 15.2 | 29.8 | > 79 | 25 | 47.5
CCOC(=O)c1cccc(NC(=O)CNC(=O)c2cc(-c3cc(OC)c(OC)c(OC)c3)nc3ccc(F)cc23)c1 | 4.83 | 5.33 | 1.98 | 3.04 | 0.688 | 0.838 | 0.849 | 0.526 | 0.541 | 1.56 | 1.76 | 3.27 | 3.74 | 1.7 | 3.23 | 1.98 | 2.6 | 3.79 | 2.38 | 2.58
COc1ccc(NC(=O)CNC(=O)c2cc(-c3cc(OC)c(OC)c(OC)c3)nc3ccccc23)cc1 | 13.8 | 15.2 | 10.4 | 12 | – | 3.97 | 4.53 | > 79 | > 79 | 4.04 | 4.29 | 8.55 | 9.7 | 5.04 | 8.88 | 7 | 7.7 | 12.8 | 7.15 | 6.65
COc1cc(-c2cc(C(=O)Nc3cccc(C(=O)O)c3)c3ccccc3n2)cc(OC)c1OC | > 79 | > 79 | > 79 | > 79 | > 79 | > 79 | > 79 | > 79 | > 79 | > 79 | > 79 | > 79 | > 79 | > 79 | > 79 | > 79 | > 79 | > 79 | > 79 | > 79
COc1cc(-c2cc(C(=O)NCC(=O)Nc3ccc(C(C)=O)cc3)c3ccccc3n2)cc(OC)c1OC | > 79 | > 79 | 6.74 | 8.41 | – | > 79 | > 79 | 1.62 | 1.71 | > 79 | > 79 | 6.28 | 7.65 | > 79 | > 79 | 7.43 | 9.32 | – | – | –
COc1cc(-c2cc(C(=O)NCC(=O)Nc3ccc(C(C)=O)cc3)c3cc(F)ccc3n2)cc(OC)c1OC | > 79 | > 79 | > 79 | > 79 | – | 1.54 | 2.4 | > 79 | > 79 | 2.6 | 3.39 | > 79 | > 79 | 3.18 | 10.4 | 0.441 | 4.84 | > 79 | 4.71 | –
CCOC(=O)c1cccc(NC(=O)c2cc(-c3cc(OC)c(OC)c(OC)c3)nc3c(Cl)cccc23)c1 | > 79 | > 79 | > 79 | > 79 | – | > 79 | 30.3 | > 79 | > 79 | > 79 | > 79 | > 79 | > 79 | > 79 | 11.1 | > 79 | > 79 | > 79 | – | > 79
COc1ccc2c(c1OC)C(=O)N1c3ccccc3C(=O)N(Cc3ccccc3)C21 (configuration not stated) | 44.9 | 49.1 | > 79 | > 79 | – | 3.56 | 4.07 | > 79 | > 79 | 3.57 | 4.36 | 13.8 | 18.9 | > 79 | > 79 | > 79 | > 79 | – | > 79 | 10.2
COc1ccc2c(c1OC)C(=O)N1c3ccccc3C(=O)N(Cc3ccccc3Br)C21 (configuration not stated) | > 79 | > 79 | > 79 | > 79 | – | > 79 | 2.03 | > 79 | > 79 | 2.54 | 2.85 | 13.9 | 34.4 | > 79 | > 79 | > 79 | > 79 | > 79 | > 79 | 13.4
COc1ccc2c(c1OC)C(=O)N1c3ccccc3C(=O)N(Cc3ccc(C)cc3C)C21 (configuration not stated) | > 79 | > 79 | > 79 | > 79 | > 79 | > 79 | > 79 | > 79 | > 79 | > 79 | > 79 | > 79 | > 79 | > 79 | > 79 | > 79 | > 79 | > 79 | – | > 79
